The source of these data is patent publication US10780106B2, “Method for treating NASH accompanied by fibrosis using Cl-IB-MECA” (CAN-FITE BIOPHARMA LTD., priority 2015, dated 2020).

“Also recorded” adds a separate entry of the source.

The test system of data set [1] is NASH mice. The experiment in a line: Example 1: STZ plus high fat diet NASH mouse model, effect of CF102 on liver weight, ALT, TG and liver histology. The data set is classed as in vivo, Male C57BL/6 mice. The procedure:
Male C57BL/6 mice were used as a murine experimental model.
The A3AR agonist, 2-Chloro-N^6-(3-iodobenzyl)-adenosine-5′-N-methyluronamide (Cl-IB-MECA, referred to herein by the abbreviated name CF102), was synthesized for Can-Fite BioPharma by Albany Molecular Research Inc, Albany. N.Y., USA. CF102 was used in liquid form, dissolved in dimethyl sulfoxide (DMSO), used as the vehicle. Dissolved CF102 and the DMSO vehicle were administered at the same volume.
Male C57BL/6 mice were injected with a single subcutaneous injection of 200 μg streptozotocin (STZ) two days after birth and feeding with high fat diet after 4 weeks of age. […] Treatment was given between 6 weeks of age and 9 weeks of age.
After Study termination, liver weight was measured and Liver-to-Body weight ratio was calculated.
Plasma ALT and liver triglyceride were measured and histological analyses were made on the liver sections for the following: Hematoxylin & Eosin staining for estimation of NAFLD Activity score and Sirius red staining for estimation of fibrosis area.

The subject of data set [2] is NASH mice. The experiment in a line: Example 2: STZ plus high fat diet mouse model, effect of CF102 on NAS score. It counts as in vivo. Particulars: CF102 200 μg/kg orally thrice daily, 6 to 9 weeks of age; compared to the vehicle. The protocol:
Male mice were injected with 200 μg/animal STZ two days after birth. From 4 weeks of age, the mice were fed with high fat diet. At 6 weeks of age, the mice were randomized into vehicle and CF102 200 μg/kg treatment groups. Treatment was given orally, thrice daily. Termination was performed after 9 weeks. Hematoxylin & Eosin staining was used for estimation of NAFLD Activity.

A further data set deals with hepatocyte. Particulars: as disclosed in WO09/050707; cited from earlier work.
The mark [3] stands for this setting: Hematoxylin & Eosin liver histology, compared to the Vehicle.
[4] abbreviates: NASH mice, CF102 orally thrice daily from 6 to 9 weeks of age, vs vehicle.

Consider `CNC(=O)[C@H]1O[C@@H](n2cnc3c(NCc4cccc(I)c4)nc(Cl)nc32)[C@H](O)[C@@H]1O` [CF102, 2-Chloro-N^6-(3-iodobenzyl)-adenosine-5′-N-methyluronamide], for which the NAFLD activity score result in the data set with NASH mice [1] (CF102 200 μg/kg, FIG. 4) is on record as “decrease in NAFLD activity score”. Further, in the data set with NASH mice [1] (setting [3]), the “ballooning (liver sections)” value is “significant decrease”, the “lobular inflammation (liver sections)” value is listed as “significant decrease” and the “steatosis (liver sections)” value is “significant decrease”. The liver-to-body weight ratio result in the data set on NASH mice [1] (NASH livers in mice, CF102 orally thrice daily from 6 to 9 weeks of age, vs vehicle, p=0.05) was “reduced liver-to-body weight ratio; also recorded: reduction of liver-to-body weight ratio”. For the same molecule, in the data set with NASH mice [1] (setting [4]), the “Triglycerides levels in the liver” value was “decrease” and the “plasma ALT level” value was “decreased ALT levels; also recorded: decrease in plasma ALT level”. The “inflammation NAS (NAFLD Activity Score) score” value with NASH mice [2] was “reduced the inflammation NAS; also recorded: reducing the inflammation NAS score”. Moreover, in the data set with hepatocyte, the hepatocyte proliferation entry is given as “induce hepatocyte proliferation”.
